From patent publication US10889611B2, “Sialyltransferase inhibitors and uses thereof” (Academia Sinica, priority 2015, dated 2021) come the findings set out here.

As a reminder, the melting point is the temperature, or range, at which the solid turns liquid.

The test system of data set [1] is LN cells. As to the kind of experiment: MTT assay cytotoxicity, LN cells. It is filed as cell-based, human. Particulars: 1, 5, 10, 25 and 50 μM for 24 and 48 hours, FIG. 6. On the procedure:
(§1) The LN cell line was established by orthotopically injected 5×10^5 PANC-1 cells to the pancreas of SCID mice. After one month, mestastasis was found in lymph nodes, cancerous cells were then isolated from lymph nodes. The genomic DNA of the isolated cancer cells from lymph nodes were extracted and sent for genotyping analysis, which confirmed that LN cells were indeed derived from PANC-1 cells (data not shown).
(§2) The absorbance of the solution at 570 nm was measured by spectrophotometer.
(§3) The cytotoxicity of FCW551 on PANC-1 and LN cells were determined by MTT assay in according to procedures described in the “Materials and Methods” section.
For orientation: Tetrazolium assays rely on reduction of a dye to a coloured formazan, in cell work by metabolically active cells.

Data set [2] relates to PANC-1 cells. As to the kind of experiment: MTT assay cytotoxicity, PANC-1 cells. Format: cell-based, human. Particulars: 1, 5, 10, 25 and 50 μM for 24 and 48 hours, FIG. 6. On the procedure: as §2, §3
The test system of data set [3] is LN cells. The data set can be described thus: Migration and invasion analysis, LN cells. Format: cell-based, human. As to conditions: 1 and 20 μM for 24 and 48 hours, FIG. 7.
From the text: as §1
(§4) Migration assays were done using a transwell, in which a polycarbonate filter pre-coated with Matrigel (8-μm pores, Millicell; Millipore, Billerica, Mass.) was inserted therein. Cells were serum-starved for 24 h and then seeded (5×10^5 cells per upper chamber) and treated with or without the present compound(s) (concentrations as indicated), and the assays were run for 6 h. Cells that had migrated to the underside of the inserted filter were stained with hematoxylin solution. The cells in the upper side of the inserted membrane were rubbed with a cotton swab. The migrated cells on the underside were pictured in a 200× magnification field and quantified.
(§5) In this example, the ability of the FCW551 in suppressing the migration and/or invasion of pancreatic cancer cells was investigated. Briefly, PANC-1 and LN cells were respectively treated with 1 and 20 μM FCW551 for 24 and 48 hours before subjecting to the migration and invasion analysis. Results are illustrated in FIG. 7.

The subject of data set [4] is PANC-1 cells. As to the kind of experiment: Migration and invasion analysis, PANC-1 cells. Format: cell-based, human. As to conditions: 1 and 20 μM for 24 and 48 hours, FIG. 7. On the procedure: as §4, §5

`C[C@H](CCC(=O)NCCOCCOCCN=[N+]=[N-])C1CCC2C3CC[C@@H]4C[C@H](NC(=O)[C@H](CC(=O)O)Nc5ccc([N+](=O)[O-])c6nonc56)CC[C@]4(C)C3CC[C@@]21C` (stereo partly drawn) [Compound 17, (3S)-4-(((3R,5R,10S,13R)-17-((R)-5-((2-(2-(2-azidoethoxy)ethoxy)ethyl)amino)-5-oxopentan-2-yl)-10,13-dimethylhexadecahydro-1H-cyclopenta[a]phenanthren-3-yl)amino)-3-((7-nitrobenzo[c][1,2,5]oxadiazol-4-yl)amino)-4-oxobutanoic acid] registered a melting point of 90 to 91 °C. Moreover, the cytotoxicity entry with LN cells [1] is recorded as “no significant cytotoxicity”. Further, the cytotoxicity result with PANC-1 cells [2] is given as “no significant cytotoxicity”. Besides, in the data set on LN cells [3], the invasion ability result is on record as “greatly suppressed” and the migration ability result is listed as “greatly suppressed”. In addition, in the data set with PANC-1 cells [4], the invasion ability result was “greatly suppressed” and the migration ability entry is “greatly suppressed”.
